From article PMC8037406, “Symbiotic NCR Peptide Fragments Affect the Viability, Morphology and Biofilm Formation of Candida Species” (International Journal of Molecular Sciences, 2021)
Read-outs that look alike come from different tables or passages of the source. Where a SMILES comes first, the peptide text is derived from it. Bridges are numbered along the chain shown (N, C = ends).

Assays:
C. auris = conditions: for reduction of MIC in the synergistic combination: compared with single use
Method: Amphotericin B, due to its high toxicity was not included in this assay.
The effects of the different combinations of fluconazole and NCR335C17–33, NCR169C17–38 or NCR169C17–38ox were determined by standard checkerboard titration method. The fluconazole was tested in a concentration range from 6.25 to 75 µM, NCR169C17–38 and NCR169C17–38ox from 0.78 to 12.50 µM, NCR335C17–33 from 1.56 to 25 µM. The initial cell concentration in each well was 4 × 10^4 cell/mL. After the incubation for 72 h at 30 °C, the optical density of the cultures was detected at 620 nm in SPECTROstar Nano plate reader (BMG LabTech, Offenburg, Germany). The inhibitory concentrations were determined for each compound alone and in combinations. The experiments were carried out at least three times. The effect of combinations was evaluated by fractional inhibitory concentration (FIC) index. FIC = FICA + FICB. FICA = (MICA in combination)/(MICA alone); FICB = (MICB in combination)/(MICB alone)

[1] = system: C. albicans SZMC 1458 biofilm; experiment: Biofilm formation assay, XTT; format: cell-based, Candida albicans; conditions: 72 h, 37 °C, 5 % CO2, 1/8AIM medium, p ≤ 0.0001
C. albicans ATCC 10231 = experiment: Yeast-hypha morphology, bright-field microscopy; format: cell-based, Candida albicans; conditions: 3.12 µM peptide, 48 h, 1/8AIM medium, sub-lethal concentration
Source text: (§1) As hyphae formation is an important virulence factor, we investigated how the broad range activity peptides, NCR335C17–33, NCR169C17–38 and NCR169C17–38ox affect the morphological switch of C. albicans ATCC 10231 and C. tropicalis between the hyphal and yeast growth forms at sub-lethal concentrations (Figure 1). […] However, not only the morphology changed, but the cell number also declined, particularly in the latter case.
(§2) To induce morphological change of C. albicans and C. tropicalis YNB medium was changed for eight-fold diluted AIM-V+AlbuMAX (BSA) medium (Gibco, Thermo Fisher Scientific, Dublin, Ireland) referred to as 1/8AIM in the text.
(§3) Bright-field microscopy. The morphology of C. albicans ATCC 10231 and C. tropicalis cells was examined after 48 h incubation with the selected peptides (NCR335C17–33 and NCR169C17–38) by Zeiss Axio Observer inverted microscope (Carl Zeiss AG, Jena, Germany). The concentration of the NCR335C17–33 was 1.56 and 3.12 µM, NCR169C17–38 1.56 or 3.12 µM while NCR169C17–38ox 0.78 or 3.12 µM, the initial cell concentration was set to 4 × 10^4 cell/mL. Cells cultivated without peptides were used as control.

[2] = system: Candida parapsilosis CBS 604; experiment: microbe, parasite or virus in culture; format: cell-based; conditions: micro-dilution, YNB medium, 4 × 10^4 cell/mL, 48 h, 30 °C, OD 620 nm; MIC = growth inhibition ≥90%; peptides 25 to 1.56 µM, fluconazole 200 to 0.78 µM; three biological repeats in triplicates; note: key: -: no growth inhibition was observed
Method: (§4) The antifungal activity of all the 14 peptides was tested against the following opportunistic human pathogen Candida species and strains: C. albicans strains ATCC 10231, SC 5314 and SZMC 1458, C. auris 0381, C. glabrata CBS 138, C. parapsilosis CBS 604 and C. tropicalis CBS 94.
(§5) All the Candida strains (Table 4) were grown overnight in YPD medium (1% pepton, 1% dextrose, 0.5% yeast extract) at 30 °C in water bath shaker prior to each experiments. The cells were harvested by centrifugation (5 min, 3000× g) washed twice with sterile distilled water and suspended in 5-fold diluted Difco Yeast Nitrogen Base w/o Amino Acids medium (Becton, Dickinson and Company, Sparks, MD, USA) supplemented with 1% dextrose, referred to as YNB medium in the text. Cells were counted in Bürker chamber and diluted to the proper concentration.
(§6) The growth inhibition of the peptides listed in Table 1 was tested in 96-well microtiter plates on Candida strains. The minimal inhibitory concentration (MIC) was determined with the micro-dilution method by adding 5 µL serially two-fold-diluted peptide solution to 95 µL of cell suspension (4 × 10^4 cell/mL) in YNB medium. After 48 h of incubation at 30 °C the optical density of the cultures was measured at 620 nm in SPECTROstar Nano plate reader (BMG LabTech, Offenburg, Germany). Minimal inhibitory concentration was defined as growth inhibition ≥90% compared to 100% growth of the untreated control. The experiments were carried out in three biological repeats always in triplicates.

[3] = system: C. tropicalis CBS 94 biofilm; experiment: Biofilm formation assay, XTT; format: cell-based, Candida tropicalis; conditions: 72 h, 37 °C, 5 % CO2, 1/8AIM medium, p ≤ 0.0001
[4] = system: C. albicans ATCC 10231 biofilm; experiment: Biofilm formation assay, XTT; format: cell-based, Candida albicans; conditions: 72 h, 37 °C, 5 % CO2, 1/8AIM medium, p ≤ 0.0001
Candida cells = experiment: Fungicide effect, spotting of treated cells on solid YPD medium; format: cell-based, Candida species; conditions: 1.56–25 µM, 24 h treatment, dilutions spotted on solid YPD medium, 48 h, 30 °C
Method: To determine whether the inhibitory effect of the peptides is generated by fungistatic or fungicide action, the Candida cells were treated with the peptides in the same concentration range (1.56–25 µM) as in the growth inhibition assay. After 24 h 5 µL sample from the untreated control cells and from the peptide treated cells was added to 95 µL water and diluted further 10- and 100-fold. From each dilution, 5 µL was placed on solid medium and the growth of the control and peptide treated cells was compared after 48 h incubation at 30 °C. This assay confirmed that all the effective peptides, NCR335N1–19, NCR335N7–21, NCR335C1–33, NCR335C13–33, NCR335C17–33, NCR169C17–38, NCR169C17–38ox, NCR169C17–38W10,20/A provoked growth inhibition through fungicidal actions (Figure A2). The fungicide concentrations, required for the complete elimination of the Candida cells, were either equal to or twice higher than the minimum inhibitory concentrations presented in Table 2.
The same initial experimental setting was used to determine the fungicide effect of the peptides. Five µL samples were taken from the cultures after 24 h and were added to 95 µL sterile distilled water, and diluted to 10- and 100-fold (indicated as 10^4, 10^3 and 10^2 based on the cell number of the control culture in Figure A2). Five µL from each dilution were placed on solid YPD medium and the growth of the strains was detected after 48 h incubation at 30 °C.

[5] = system: C. albicans SC 5314 biofilm; experiment: Biofilm formation assay, XTT; format: cell-based, Candida albicans; conditions: 72 h, 37 °C, 5 % CO2, 1/8AIM medium, p ≤ 0.0001
C. tropicalis CBS 94 = experiment: Yeast-hypha morphology, bright-field microscopy; format: cell-based, Candida tropicalis; conditions: 48 h, 1/8AIM medium
Source text: as §1, §2, §3

[6] = system: C. albicans ATCC 10231 biofilm; experiment: Morphology of biofilm-located cells, scanning electron microscopy; format: cell-based, Candida albicans; conditions: SEM, 72 h, 37 °C, sub-lethal concentrations
Candida auris 0381 = experiment: microbe, parasite or virus in culture; format: cell-based; conditions: micro-dilution, YNB medium, 4 × 10^4 cell/mL, 48 h, 30 °C, OD 620 nm; MIC = growth inhibition ≥90%; peptides 25 to 1.56 µM, fluconazole 200 to 0.78 µM; three biological repeats in triplicates; note: key: -: no growth inhibition was observed
Method: as §4, §5, §6

[7] = system: C. tropicalis CBS 94 biofilm; experiment: Morphology of biofilm-located cells, scanning electron microscopy; format: cell-based, Candida tropicalis; conditions: SEM, 72 h, 37 °C, 1.56 µM peptide
Candida albicans = conditions: cited from earlier work
Source text: In addition to bacteria, NCRs can also kill fungi. […] However, we noticed that, unlike the full sequence of NCR169, its C-terminal half was highly cationic (pI: 10.1) leading us to assume that this part may have antimicrobial activity.

[8] = NCR169C17–38 + NCR169C17–38ox, C. auris
[9] = fluconazole + NCR169C17–38ox, C. auris

Compound: CC[C@H](C)[C@H](NC(=O)[C@H](CCCCN)NC(=O)[C@H](Cc1ccccc1)NC(=O)[C@H](CC(C)C)NC(=O)[C@@H]1CCCN1C(=O)[C@H](CCCCN)NC(=O)[C@H](CCCCN)NC(=O)[C@H](CO)NC(=O)[C@@H](N)CCCCN)C(=O)N[C@@H](Cc1c[nH]c2ccccc12)C(=O)N[C@@H](CCCCN)C(=O)N[C@H]1CSSC[C@@H](C(=O)N[C@H](C(=O)N[C@@H](CC(C)C)C(=O)N[C@@H](Cc2c[nH]c3ccccc23)C(=O)N[C@@H](Cc2ccc(O)cc2)C(=O)N[C@@H](CCCCN)C(N)=O)C(C)C)NC(=O)[C@H](C(C)C)NC(=O)[C@H](CC(N)=O)NC(=O)[C@H](CCC(=O)O)NC(=O)[C@H](C(C)C)NC1=O [NCR169C17–38ox] (H-KSKKPLFKIWKCVENVCVLWYK-NH2; disulfide 12-17; N-terminus assumed)
- Action (C. auris; [8]): Synergism
- reduction of MIC in the synergistic combination (C. auris; [8]): 8 ×
- Action (C. auris; [9]): Synergism
- reduction of MIC in the synergistic combination (C. auris; [9]): 8 ×
- concentration significantly inhibiting biofilm formation, relative to MIC [1]: half MIC
- effect on hyphal growth (C. albicans ATCC 10231): completely inhibited the hyphal growth
- Minimal inhibitory concentration, Cp CBS 604 [2]: -
- concentration significantly inhibiting biofilm formation, relative to MIC [3]: half MIC
- concentration significantly inhibiting biofilm formation, relative to MIC [4]: MIC
- growth inhibition by fungistatic or fungicide action (Candida cells): fungicidal
- concentration significantly inhibiting biofilm formation, relative to MIC [5]: one-fourth of the MIC
- effect on hyphal/yeast growth form (C. tropicalis CBS 94; 0.78 µM peptide): the only form of the culture

Compound: CC[C@H](C)[C@H](NC(=O)[C@@H]1CCCN1C(=O)[C@@H](NC(=O)[C@H](CS)NC(=O)[C@H](Cc1ccc(O)cc1)NC(=O)[C@H](CO)NC(=O)[C@H](CCCCN)NC(=O)[C@H](CCCNC(=N)N)NC(=O)[C@H](CS)NC(=O)[C@H](CCCNC(=N)N)NC(=O)[C@@H](NC(=O)[C@H](CC(N)=O)NC(=O)[C@H](C)NC(=O)[C@H](CCCNC(=N)N)NC(=O)[C@H](CCCNC(=N)N)NC(=O)[C@H](CC(C)C)NC(=O)[C@@H](N)CCCCN)C(C)C)C(C)C)C(N)=O [NCR335C17–33] (H-KLRRANVRCRKSYCVPI-NH2; N-terminus assumed)
- Action (C. auris; NCR169C17–38 + NCR335C17–33, C. auris): Synergism
- concentration of drug B for the indicated action (C. auris; checkerboard, C. auris, 72 h, 30 °C, drug A NCR169C17–38 + drug B NCR335C17–33): 3.12 µM
- FICB (C. auris; checkerboard, C. auris, 72 h, 30 °C, drug A NCR169C17–38 + drug B NCR335C17–33, * fictitious value, 25 µM used as MIC of NCR335C17–33): ≤ 0.25
- Action (C. auris; fluconazole + NCR335C17–33, C. auris): Indifferent
- concentration significantly inhibiting biofilm formation, relative to MIC [1]: half MIC
- morphology of cells in the biofilm [6]: reduced the abundance of the hyphal form
- effect on hyphal growth (C. albicans ATCC 10231): completely inhibited the hyphal growth
- Minimal inhibitory concentration, Cau 0381 (Candida auris 0381): -
- concentration significantly inhibiting biofilm formation, relative to MIC [3]: MIC
- morphology of cells in the biofilm [7]: practically only the yeast form was present
- concentration significantly inhibiting biofilm formation, relative to MIC [4]: half MIC
- growth inhibition by fungistatic or fungicide action (Candida cells): fungicidal
- concentration significantly inhibiting biofilm formation, relative to MIC [5]: half MIC
- effect on hyphal/yeast growth form (C. tropicalis CBS 94; 1.56 µM peptide): shifted to the yeast form

Compound: EDIGHIKYCGIVDDCYKSKKPLFKIWKCVENVCVLWYK [NCR169]
- activity against C. albicans (Candida albicans; in the studied concentration range): inactive

Compound: RLNTTFRPLNFKMLRFWGQNRNIMKHRGQKVHFSLILSDCKTNKDCPKLRRANVRCRKSYCVPI [NCR335, 64 amino acid long cationic nodule specific cysteine-rich peptide of Medicago truncatula]
- MIC (Candida albicans; C. albicans): 1.4 to 2.5 µM
- minimal inhibitory concentrations (MIC), range over the listed cationic NCR peptides (Candida albicans; C. albicans): 1.4 to 10 µM
